Data on 26 compounds can be found in patent publication US8729078B2, “Inhibitors of bruton's tyrosine kinase” (Hoffmann-La Roche Inc., priority 2011, dated 2014).

Btk, sequence (Q06187 whole entry): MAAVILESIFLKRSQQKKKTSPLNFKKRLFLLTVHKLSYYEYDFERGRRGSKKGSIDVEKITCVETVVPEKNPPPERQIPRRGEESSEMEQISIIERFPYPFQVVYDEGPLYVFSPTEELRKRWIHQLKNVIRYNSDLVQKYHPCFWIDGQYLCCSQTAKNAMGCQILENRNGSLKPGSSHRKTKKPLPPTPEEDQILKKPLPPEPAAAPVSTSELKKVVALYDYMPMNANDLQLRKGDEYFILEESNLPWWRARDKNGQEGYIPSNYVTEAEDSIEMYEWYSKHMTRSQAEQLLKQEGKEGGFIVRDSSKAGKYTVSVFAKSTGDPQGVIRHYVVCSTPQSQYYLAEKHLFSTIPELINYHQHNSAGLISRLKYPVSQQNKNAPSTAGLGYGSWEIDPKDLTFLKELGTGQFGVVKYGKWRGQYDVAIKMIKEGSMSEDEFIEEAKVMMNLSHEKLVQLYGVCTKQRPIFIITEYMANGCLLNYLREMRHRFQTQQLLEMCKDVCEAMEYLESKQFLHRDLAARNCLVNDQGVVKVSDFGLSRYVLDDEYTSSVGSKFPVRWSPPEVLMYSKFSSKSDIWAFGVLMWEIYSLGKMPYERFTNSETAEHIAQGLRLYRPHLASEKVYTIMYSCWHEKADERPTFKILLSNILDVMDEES

This experiment has as its target Btk (Homo sapiens (Human), UniProt Q06187). Description: Bruton's Tyrosine Kinase (Btk) inhibition assay (FRET BTK). The format is biochemical.
In the case of `Cn1cc(-c2cccc(-n3ccc4cc(C5CC5)cc(F)c4c3=O)c2CO)cc1C(N)=O` [Compound I-13, 4-[3-(6-Cyclopropyl-8-fluoro-1-oxo-1H-isoquinolin-2-yl)-2-hydroxymethyl-phenyl]-1-methyl-1H-pyrrole-2-carboxylic acid amide], the IC50 (usually the concentration at which inhibition is half-maximal) came to 39.4 nM.
For the compound `CC(C)(C)c1cc(F)c2c(=O)n(-c3cccc(-n4cc(C(N)=O)c(Nc5ccc(Cl)cn5)n4)c3CO)ncc2c1` [Compound I-23, 1-[3-(6-tert-Butyl-8-fluoro-1-oxo-1H-phthalazin-2-yl)-2-hydroxymethyl-phenyl]-3-(5-chloro-pyridin-2-ylamino)-1H-pyrazole-4-carboxylic acid amide], half-maximal inhibition (IC50) was put at 0.29 nM.
For `CC(C)(CN1CCC1)Oc1ccc(Nc2nn(-c3cccc(-n4ncc5cc(C(C)(C)C)cc(F)c5c4=O)c3CO)cc2C(N)=O)nc1` [Compound I-24, 3-[5-(2-Azetidin-1-yl-1,1-dimethyl-ethoxy)-pyridin-2-ylamino]-1-[3-(6-tert-butyl-8-fluoro-1-oxo-1H-phthalazin-2-yl)-2-hydroxymethyl-phenyl]-1H-pyrazole-4-carboxylic acid amide] the value was 0.18 nM.
Turning to `CN1CCn2nc(Nc3nn(-c4cccc(-n5ncc6cc(C(C)(C)C)cc(F)c6c5=O)c4CO)cc3C(N)=O)cc2C1` [Compound I-25, 1-[3-(6-tert-Butyl-8-fluoro-1-oxo-1H-phthalazin-2-yl)-2-hydroxymethyl-phenyl]-3-(5-methyl-4,5,6,7-tetrahydro-pyrazolo[1,5-a]pyrazin-2-ylamino)-1H-pyrazole-4-carboxylic acid amide], the midpoint of inhibition, the IC50, lay at 0.09 nM.
For `CC(C)(C)c1cc(F)c2c(=O)n(-c3cccc(-n4cc(C(N)=O)c(Nc5ccccn5)n4)c3CO)ncc2c1` [Compound I-26, 1-[3-(6-tert-Butyl-8-fluoro-1-oxo-1H-phthalazin-2-yl)-2-hydroxymethyl-phenyl]-3-(pyridin-2-ylamino)-1H-pyrazole-4-carboxylic acid amide] the value was 0.36 nM; for `Cn1ccc(Nc2nn(-c3cccc(-n4ncc5cc(C(C)(C)C)cc(F)c5c4=O)c3CO)cc2C(N)=O)n1` [Compound I-28, 1-[3-(6-tert-Butyl-8-fluoro-1-oxo-1H-phthalazin-2-yl)-2-hydroxymethyl-phenyl]-3-(1-methyl-1H-pyrazol-3-ylamino)-1H-pyrazole-4-carboxylic acid amide], 0.22 nM; for `CC(C)(C)c1cc(F)c2c(=O)n(-c3cccc(-n4cc(C(N)=O)c(Nc5cnccn5)n4)c3CO)ncc2c1` [Compound I-29, 1-[3-(6-tert-Butyl-8-fluoro-1-oxo-1H-phthalazin-2-yl)-2-hydroxymethyl-phenyl]-3-(pyrazin-2-ylamino)-1H-pyrazole-4-carboxylic acid amide], 0.43 nM.
Then `CC(C)(C)c1cc(F)c2c(=O)n(-c3cccc(-n4cc(C(N)=O)c(Nc5ccc(F)cn5)n4)c3CO)ncc2c1` [Compound I-30, 1-[3-(6-tert-Butyl-8-fluoro-1-oxo-1H-phthalazin-2-yl)-2-hydroxymethyl-phenyl]-3-(5-fluoro-pyridin-2-ylamino)-1H-pyrazole-4-carboxylic acid amide], with 0.24 nM; and `Cc1cc(Nc2nn(-c3cccc(-n4ncc5cc(C(C)(C)C)cc(F)c5c4=O)c3CO)cc2C(N)=O)nn1C` [Compound I-31, 1-[3-(6-tert-Butyl-8-fluoro-1-oxo-1H-phthalazin-2-yl)-2-hydroxymethyl-phenyl]-3-(1,5-dimethyl-1H-pyrazol-3-ylamino)-1H-pyrazole-4-carboxylic acid amide], with 0.29 nM; and `CC(C)(C)c1cc(F)c2c(=O)n(-c3cccc(-n4cc(C(N)=O)c(Nc5ccc(C(F)(F)F)cn5)n4)c3CO)ncc2c1` [Compound I-32, 1-[3-(6-tert-Butyl-8-fluoro-1-oxo-1H-phthalazin-2-yl)-2-hydroxymethyl-phenyl]-3-(5-trifluoromethyl-pyridin-2-ylamino)-1H-pyrazole-4-carboxylic acid amide], with 0.57 nM.
Then `Cc1ccc(Nc2nn(-c3cccc(-n4ncc5cc(C(C)(C)C)cc(F)c5c4=O)c3CO)cc2C(N)=O)nc1` [Compound I-33, 1-[3-(6-tert-Butyl-8-fluoro-1-oxo-1H-phthalazin-2-yl)-2-hydroxymethyl-phenyl]-3-(5-methyl-pyridin-2-ylamino)-1H-pyrazole-4-carboxylic acid amide], with 0.24 nM; and `Cc1cc(Nc2nn(-c3cccc(-n4ncc5cc(C(C)(C)C)ccc5c4=O)c3CO)cc2C(N)=O)nn1C` [Compound I-34, 1-[3-(6-tert-Butyl-1-oxo-1H-phthalazin-2-yl)-2-hydroxymethyl-phenyl]-3-(1,5-dimethyl-1H-pyrazol-3-ylamino)-1H-pyrazole-4-carboxylic acid amide], with 0.51 nM; and `CC(C)(C)c1ccc2c(=O)n(-c3cccc(-n4cc(C(N)=O)c(Nc5cnccn5)n4)c3CO)ncc2c1` [Compound I-36, 1-[3-(6-tert-Butyl-1-oxo-1H-phthalazin-2-yl)-2-hydroxymethyl-phenyl]-3-(pyrazin-2-ylamino)-1H-pyrazole-4-carboxylic acid amide], with 0.83 nM.
`Cc1ccc(Nc2nn(-c3cccc(-n4ncc5cc(C(C)(C)C)ccc5c4=O)c3CO)cc2C(N)=O)nc1` [Compound I-37, 1-[3-(6-tert-Butyl-1-oxo-1H-phthalazin-2-yl)-2-hydroxymethyl-phenyl]-3-(5-methyl-pyridin-2-ylamino)-1H-pyrazole-4-carboxylic acid amide] showed an IC50 of 1.13 nM.
`CC(C)(C)c1cc(F)c2c(=O)n(-c3cccc(-n4cc(C(N)=O)c(Nc5ccc(S(C)(=O)=O)cn5)n4)c3CO)ncc2c1` [Compound I-38, 1-[3-(6-tert-Butyl-8-fluoro-1-oxo-1H-phthalazin-2-yl)-2-hydroxymethyl-phenyl]-3-(5-methanesulfonyl-pyridin-2-ylamino)-1H-pyrazole-4-carboxylic acid amide] returned an IC50 of 0.17 nM.
In the case of `CC(C)(C)c1cc(F)c2c(=O)n(-c3cccc(-n4cc(C(N)=O)c(Nc5ccc(C#N)cn5)n4)c3CO)ncc2c1` [Compound I-39, 1-[3-(6-tert-Butyl-8-fluoro-1-oxo-1H-phthalazin-2-yl)-2-hydroxymethyl-phenyl]-3-(5-cyano-pyridin-2-ylamino)-1H-pyrazole-4-carboxylic acid amide], the IC50 turned out to be 0.18 nM.
For `CC(C)(C)c1cc(F)c2c(=O)n(-c3cccc(-n4ccc(C(N)=O)n4)c3CO)ncc2c1` [Compound I-40, 1-[3-(6-tert-Butyl-8-fluoro-1-oxo-1H-phthalazin-2-yl)-2-hydroxymethyl-phenyl]-1H-pyrazole-3-carboxylic acid amide] the value was 333 nM; for `CC(C)(C)c1cc(F)c2c(=O)n(-c3cccc(-n4cc(C(N)=O)cn4)c3CO)ncc2c1` [Compound I-41, 1-[3-(6-tert-Butyl-8-fluoro-1-oxo-1H-phthalazin-2-yl)-2-hydroxymethyl-phenyl]-1H-pyrazole-4-carboxylic acid amide], 268 nM; for `CC(C)(C)c1cc(F)c2c(=O)n(-c3cccc(-n4cc(C(N)=O)c5cncnc54)c3CO)ncc2c1` [Compound I-42, 7-[3-(6-tert-Butyl-8-fluoro-1-oxo-1H-phthalazin-2-yl)-2-hydroxymethyl-phenyl]-7H-pyrrolo[2,3-d]pyrimidine-5-carboxylic acid amide], 7.32 nM.
`CN1CCN(c2ccc3c(C(N)=O)cn(-c4cccc(-n5ncc6cc(C(C)(C)C)cc(F)c6c5=O)c4CO)c3n2)CC1` [Compound I-43, 1-[3-(6-tert-Butyl-8-fluoro-1-oxo-1H-phthalazin-2-yl)-2-hydroxymethyl-phenyl]-6-(4-methyl-piperazin-1-yl)-1H-pyrrolo[2,3-b]pyridine-3-carboxylic acid amide]: the IC50 is 2.83 nM.
Compound `CC(C)(C)c1cc(F)c2c(=O)n(-c3cccc(-n4cc(C(N)=O)c5ccc(N6CCOCC6)nc54)c3CO)ncc2c1` [Compound I-44, 1-[3-(6-tert-Butyl-8-fluoro-1-oxo-1H-phthalazin-2-yl)-2-hydroxymethyl-phenyl]-6-morpholin-4-yl-1H-pyrrolo[2,3-b]pyridine-3-carboxylic acid amide] displayed an IC50 of 10.3 nM.
Then `CCOc1ccc(-c2ccc3c(C(N)=O)cn(-c4cccc(-n5ncc6cc(C(C)(C)C)cc(F)c6c5=O)c4CO)c3n2)cn1` [Compound I-45, 1-[3-(6-tert-Butyl-8-fluoro-1-oxo-1H-phthalazin-2-yl)-2-hydroxymethyl-phenyl]-6-(6-ethoxy-pyridin-3-yl)-1H-pyrrolo[2,3-b]pyridine-3-carboxylic acid amide], with 11 nM; and `CC(C)(C)c1cc(F)c2c(=O)n(-c3cccc(-n4cc(C(N)=O)c5ccc(-c6ccccc6F)nc54)c3CO)ncc2c1` [Compound I-46, 1-[3-(6-tert-Butyl-8-fluoro-1-oxo-1H-phthalazin-2-yl)-2-hydroxymethyl-phenyl]-6-(2-fluoro-phenyl)-1H-pyrrolo[2,3-b]pyridine-3-carboxylic acid amide], with 14.3 nM; and `CC(C)(C)c1cc(F)c2c(=O)n(-c3cccc(-n4cc(C(N)=O)c5ccc(-c6ccccc6Cl)nc54)c3CO)ncc2c1` [Compound I-47, 1-[3-(6-tert-Butyl-8-fluoro-1-oxo-1H-phthalazin-2-yl)-2-hydroxymethyl-phenyl]-6-(2-chloro-phenyl)-1H-pyrrolo[2,3-b]pyridine-3-carboxylic acid amide], with 28.4 nM.
Then `CC(C)(C)c1cc(F)c2c(=O)n(-c3cccc(-n4cc(C(N)=O)c5ccc(Br)nc54)c3CO)ncc2c1` [Compound I-48, 6-Bromo-1-[3-(6-tert-butyl-8-fluoro-1-oxo-1H-phthalazin-2-yl)-2-hydroxymethyl-phenyl]-1H-pyrrolo[2,3-b]pyridine-3-carboxylic acid amide], with 7.74 nM; and `CC(C)(C)c1cc(F)c2c(=O)n(-c3cccc(-n4cc(C(N)=O)c5ccc(C(O)CO)nc54)c3CO)ncc2c1` (centres unmarked) [Compound I-49, 1-[3-(6-tert-Butyl-8-fluoro-1-oxo-1H-phthalazin-2-yl)-2-hydroxymethyl-phenyl]-6-(1,2-dihydroxy-ethyl)-1H-pyrrolo[2,3-b]pyridine-3-carboxylic acid amide], with 13.9 nM.
